Measurements from paper PMC10296061, “Inhibition of the Mitochondrial Carnitine/Acylcarnitine Carrier by Itaconate through Irreversible Binding to Cysteine 136: Possible Pathophysiological Implications” (Biomolecules, 2023).
Where a chain is given by its changes, count along the chain named.

What was measured:
recombinant CAC (WT) = target: T1, recombinant CAC (WT) (Rattus norvegicus, UniProt P97521); test: [3H]carnitine/carnitine antiport in proteoliposomes reconstituted with recombinant WT CAC; format: biochemical; conditions: recombinant WT CAC, pH 6.5, 10 min incubation; read-out: IC50 for inhibition of transport at pH 6.5
T1 construct: made in house; host or cells: E. coli C0214
T1 sequence (P97521 1-301): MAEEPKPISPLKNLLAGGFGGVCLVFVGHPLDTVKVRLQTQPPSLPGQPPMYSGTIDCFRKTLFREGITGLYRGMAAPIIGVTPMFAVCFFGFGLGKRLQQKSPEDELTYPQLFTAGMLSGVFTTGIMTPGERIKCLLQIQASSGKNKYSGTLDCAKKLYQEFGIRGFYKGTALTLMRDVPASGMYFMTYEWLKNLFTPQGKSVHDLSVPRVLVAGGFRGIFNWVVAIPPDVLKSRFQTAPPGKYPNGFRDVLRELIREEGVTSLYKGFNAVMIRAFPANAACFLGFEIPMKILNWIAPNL
Description: (§1) As previously described, the pMW7-WTratCAC recombinant plasmid was used for over-expressing the rat CAC [22]. The overlap extension method was used to introduce the mutations; in the main time, NdeI and HindIII restriction sites were also added using appropriate primers. The PCR products were purified by the QIAEX II Gel Extraction Kit (QIAGEN) and digested with NdeI and HindIII and then ligated into the pMW7. All mutations were verified by DNA sequencing. The resulting plasmid constructs were transformed into E. coli C0214. Overexpression, inclusion body fraction preparation, and purification of the CAC proteins were performed as previously described.
(§2) As previously described, recombinant CAC (WT and mutants) and ORC1 proteins were used for proteoliposome formation. For experiments with native CAC, ORC1, or ANT proteins, rat liver mitochondria, or HeLa cell mitochondria, the latter for the CAC alone, were first purified using the standard procedure of cell disruption and differential centrifugation. Then proteins were extracted using 3% Triton X-100 and reconstituted as described for the recombinant proteins. The concentration of intraliposomal carnitine and ornithine was 15 mM and 30 mM, respectively, in all samples.
(§3) To test the transport activity of the CAC, 550 μL of proteoliposomes was passed through a Sephadex G-75 column to remove the external substrate. Six hundred μL of the turbid eluate was collected, divided into samples of 100 μL each, and used for transport measurement by the inhibitor-stop method. Transport was started by adding 0.1 mM [^3H]carnitine ([^3H]ornitine or [^3H]ATP) to proteoliposome samples and stopped with 1.5 mM NEM (N-ethylmaleimide) at the indicated time interval. In the control samples, NEM was added with the labeled substrate at time zero. Transport rates were measured in 10 min, i.e., within the initial linear range of the time course, at 25 °C. After terminating the transport reaction, the external substrate was removed by chromatography on the Sephadex G-75 column, and the intraliposomal radioactivity was measured. The experimental values were corrected by subtracting the controls.
Figure 1 Effect of itaconate on the native and recombinant mitochondrial carnitine/acylcarnitine (CAC). Dose–response analysis for itaconate inhibition was carried out using proteoliposomes reconstituted with native (○) or recombinant (●) CAC carriers. After 10 min of itaconate incubation, transport activity was started by adding 0.1 mM [^3H]carnitine and stopped after 10 min as described in Section 2. Percent of residual activity with respect to the control, without itaconate treatment, was reported. The values are the means ± SD from three independent experiments.
Figure 2 Effect of different pH on the inhibition of CAC protein by itaconate. (a) Proteoliposomes reconstituted with the recombinant CAC were incubated at various pHs (range pH 6.5–8.5) for 10 min with 10 mM itaconate. (b) Dose–response analysis of inhibition by itaconate of the recombinant CAC at pH 6.5. was performed. Proteoliposomes were incubated for 10 min at pH 6.5 with itaconate at the indicated concentrations. In both (a,b), the transport activity was measured for 10 min by adding to proteoliposomes 0.1 mM [^3H]carnitine.

CAC from HeLa cells = target: T2, CAC from HeLa cells (Homo sapiens, UniProt O43772); test: HeLa cells treated with DMI, CAC extracted from mitochondria and reconstituted for transport assay; format: cell-based; conditions: 10 mM DMI, 45 min
T2 construct: CAC from mitochondria protein extract of HeLa cells treated with 10 mM DMI or vehicle (control) was reconstituted in proteoliposomes; endogenous in cells; host or cells: HeLa cells
T2 sequence (O43772 1-301): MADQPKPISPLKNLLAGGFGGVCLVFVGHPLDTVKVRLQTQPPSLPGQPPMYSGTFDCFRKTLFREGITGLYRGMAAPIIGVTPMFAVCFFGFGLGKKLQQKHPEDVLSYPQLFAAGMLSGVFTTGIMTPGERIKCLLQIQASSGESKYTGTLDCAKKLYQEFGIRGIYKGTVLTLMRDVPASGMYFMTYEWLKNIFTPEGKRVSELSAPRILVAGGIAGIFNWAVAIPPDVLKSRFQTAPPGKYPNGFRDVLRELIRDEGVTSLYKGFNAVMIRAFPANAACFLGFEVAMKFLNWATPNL
Excerpt: as §2
To test the transport activity of the CAC, 550 μL of proteoliposomes was passed through a Sephadex G-75 column to remove the external substrate. […] Transport rates were measured in 10 min, i.e., within the initial linear range of the time course, at 25 °C. After terminating the transport reaction, the external substrate was removed by chromatography on the Sephadex G-75 column, and the intraliposomal radioactivity was measured. […]
Figure 10 Effect of dimethyl itaconate (DMI) on CAC. […] Thus, the transport activity was measured for 10 min by adding to proteoliposomes 0.1 mM [^3H]carnitine. […] Transport activity in the presence or absence of DTE was measured as described in Materials and Methods. […]

[1] = target: T3, CAC C23V/C58V/C89S/C136V/C155V/C283S (C-less) mutant (Rattus norvegicus, UniProt P97521, C136V/C155V/C23V/C283S/C58V/C89S); test: Transport assay in proteoliposomes, C-less CAC mutant; format: biochemical
T3 construct: made in house; host or cells: E. coli C0214
T3 sequence (P97521 1-301 C23V/C58V/C89S/C136V/C155V/C283S): T1 sequence (P97521 1-301) with C23V, C58V, C89S, C136V, C155V, C283S
Description: as §1, §2, §3
Figure 3 Identification of residue responsible for itaconate inhibition. (a) Dose–response analysis of the Cys mutants of CAC for the inhibition by itaconate was performed. Transport activity of the WT (○), C136A (●), C155A (Δ), C23V/C58V/C89S/C155V/C283S (▲), and C23V/C58V/C89S/C136V/C155V/C283S (□) was measured by adding 0.1 mM [^3H]carnitine after treatment by itaconate at the indicated concentrations. Transport activity (µmol/10 min/mg) is: WT 1.80 ± 0.31; C136A 0.91 ± 0.10; C155A 1.00 ± 0.17; C23V/C58V/C89S/C155V/C283S 1.02 ± 0.159; C23V/C58V/C89S/C136V/C155V/C283S 0.71 ± 0.22. (b) Dose–response analysis of proteoliposomes reconstituted native (○) or recombinant ORC (●) incubated with itaconate at the indicated concentrations. Transport activity was measured by adding 0.1 [^3H]ornithine, respectively, as described in Materials and Methods. The data are expressed as a percent of the controls (no addition of itaconate) and are means ± SD from three independent experiments.
Figure 4 Lysine contribution to CAC inhibition by itaconate. Protection of PLP (pyridoxal phosphate) from inhibition by itaconate on C-less CAC was carried out. C-less mutant (i.e., C23V/C58V/C89S/C136V/C155V/C283S) was reconstituted into proteoliposomes and treated or not treated with 30 mM PLP for 10 min (“Contr” or “PLP” column, respectively). […]

| IC50 (recombinant CAC (WT)) | CAC transport activity after treatment of cells (CAC from HeLa cells) | reversal of inhibition by DTE (CAC from HeLa cells; DTE in transport assay) | inhibition at 30000 µM ([1]; 30 mM PLP for 10 min) | reversibility of inhibition after removal of PLP by size exclusion chromatography (G-75) ([1]; 30 mM PLP, then G-75) | Structure (SMILES) |
| --- | --- | --- | --- | --- | --- |
| 20 ± 4.9 mM | strongly inhibited | could not be reversed | – | – | C=C(CC(=O)OC)C(=O)OC [dimethyl itaconate] |
| – | – | – | ~75% | fully reversed | Cc1ncc(COP(=O)(O)O)c(C=O)c1O [PLP, pyridoxal 5′-phosphate, reference compound] |
